Measurements published in patent publication US7449477B2, “7-phenyl-isoquinoline-5-sulfonylamino derivatives as inhibitors of akt (protein kinase B)” (Eli Lilly and Company, priority 2003, dated 2008).
Counter-ions that a name gives are not always drawn.

target: T1, active human Akt1 (Homo sapiens, UniProt P31749); experiment: Akt1 Phosphorylation Assay (phosphocellulose filter-binding, 33P-Crosstide); format: biochemical; conditions: active human recombinant Akt1 (full-length) 10 nM; 12.5 μM Crosstide; 20 μM ATP; 30 minutes at room temperature
T1 construct: Active human recombinant Akt1 (full-length) purified from Sf9 insect cells; purchased Upstate Biotechnology, Inc. 14-276; host or cells: Sf9 insect cells
T1 sequence (P31749 whole entry): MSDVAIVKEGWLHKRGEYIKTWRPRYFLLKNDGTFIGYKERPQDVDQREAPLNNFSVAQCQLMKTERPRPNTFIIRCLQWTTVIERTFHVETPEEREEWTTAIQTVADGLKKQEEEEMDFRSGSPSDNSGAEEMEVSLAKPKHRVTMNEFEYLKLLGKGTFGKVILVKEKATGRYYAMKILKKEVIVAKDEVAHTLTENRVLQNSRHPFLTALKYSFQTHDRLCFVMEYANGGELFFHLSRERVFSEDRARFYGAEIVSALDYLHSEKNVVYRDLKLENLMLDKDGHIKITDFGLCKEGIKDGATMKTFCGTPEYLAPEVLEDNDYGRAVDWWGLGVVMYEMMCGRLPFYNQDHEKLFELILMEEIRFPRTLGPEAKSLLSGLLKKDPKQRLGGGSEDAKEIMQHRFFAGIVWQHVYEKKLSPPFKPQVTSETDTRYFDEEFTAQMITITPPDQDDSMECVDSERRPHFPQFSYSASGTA
Method: Akt1 Phosphorylation Assay
The assay described measures the phosphorylation of Crosstide by active human Akt1 and other Akt isoforms. Crosstide contains a consensus sequence derived from Akt substrates GSK3b and forkhead transcription factors (FKs). The ^33P-labeled Crosstide substrate is captured by phosphocellulose membrane filter plates.
Active human recombinant Akt1 (full-length) purified from Sf9 insect cells is from Upstate Biotechnology, Inc. (Cat. #14-276, 405 μg/ml). Crosstide substrate, NH2-GRPRTSSFAEG-COOH (M.W.1164) is purchased from Multiple Peptide System (Cat. # L59/GR145-153).
Solution (A): 20% DMSO (dimethylsulphoxide) or Compound in 20% DMSO; Solution (B): Assay Buffer Mix: 31.25 μM Crosstide, 37.5 mM MgCl2, 87.5 mM HEPES, pH 7.3, 50 μM ATP γ-^33P-ATP, 0.05 μCi/μl; Solution (C): Akt Kinase Mix: 31.25 mM HEPES, pH 7.3; 1 mM DTT, 25 nM UBI Akt1.
Procedure for Phosphocellulose Filter-Binding Assay
Ten μl of Solution (A) are first mixed with 20 μl Solution (B). The enzymatic reaction is initiated by adding 20 μl Solution (C) to the mixture. (Final concentration or amount in a 50-μl reaction mix: 4% DMSO or various compound concentration in 4% DMSO; 12.5 μM Crosstide; 15 mM MgCl2; 35 mM HEPES, pH7.3; 20 μM ATP; 1 μCi γ-^33P-ATP; 0.4 mM DTT; 10 nM UBI Akt1.) The reactions are performed in 96-well microtiter plates.
After 30 minutes at room temperature, the reaction is terminated by adding 80 μl of 10% H3PO4. An aliquot of 100 μl from each well is transferred to the phosphocellulose filter plate (Millipore MultiScreen, Catalog #MAPHN0B50). After 30 minutes, the reaction mix is filtered with a Millipore manifold following by 3 washes with 0.5% H3PO4. The filter is then vacuum-dried and the plate is fitted onto a Packard carrier. 100 μl/well Microscint20 are added and the contents are counted in a Packard Top Count.

Q: How did the IC50 turn out when `Cc1cc([N+](=O)[O-])ccc1CCCNCCNS(=O)(=O)c1cc(-c2ccccc2)cc2cnccc12` [Example 40, 7-Phenyl-isoquinoline-5-sulfonic acid {2-[3-(2-methyl-4-nitrophenyl)-propylamino]-ethyl}-amide, dihydrochloride salt] was run?
A: ≤ 2 µM

Q: `N#Cc1ccc(CCCNCCNS(=O)(=O)c2cc(-c3ccccc3)cc3cnccc23)cc1O` [Example 106, 7-Phenyl-isoquinoline-5-sulfonic acid {2-[3-(4-cyano-3-hydroxy-phenyl)-propylamino]-ethyl}-amide, bis-trifluoroacetate salt] was tested. Which IC50 did it give?
A: ≤ 2 µM

Q: Which IC50 does the source give for `Nc1ccc(-c2cc(S(=O)(=O)NCCNCCCc3ccc([N+](=O)[O-])cc3)c3ccncc3c2)cc1` [Example 90, 7-(4-aminophenyl)-isoquinoline-5-sulfonic acid [2-(3-(4-nitrophenyl)-propylamino)-ethyl]-amide, trihydrochloride salt] here?
A: ≤ 2 µM

Q: `O=S1(=O)CCN(c2cc(Cl)ccc2CCCNCCNS(=O)(=O)c2cc(-c3ccccc3)cc3cnccc23)CC1` [Example 52, 7-Phenyl-isoquinoline-5-sulfonic acid {2-[3-(4-chloro-2-(1,1-dioxo-thiomorpholin-4-yl)-phenyl)-propylamino]-ethyl}-amide, trihydrochloride salt] was tested. Which IC50 did it give?
A: ≤ 2 µM

Q: Which IC50 does the source give for `Cc1cc(C#N)ccc1CCCNCCNS(=O)(=O)c1cc(-c2ccccc2)cc2cnccc12` [Example 104, 7-Phenyl-isoquinoline-5-sulfonic acid {2-[3-(4-cyano-2-methyl-phenyl)-propylamino]-ethyl}-amide, dihydrochloride salt] here?
A: ≤ 2 µM

Q: For `CN1CCC(Oc2cc(Cl)ccc2CCCNCCNS(=O)(=O)c2cc(-c3ccccc3)cc3cnccc23)C1` (centres unmarked) [Example 55, 7-Phenyl-isoquinoline-5-sulfonic acid {2-[3-(4-chloro-2-(1-methyl-pyrrolidin-3-yl)oxy-phenyl)-propylamino]-ethyl}-amide, trihydrochloride salt], which IC50 is on record?
A: ≤ 2 µM

Q: `O=S(=O)(NCCNCCCc1ccc(Cl)cc1OCCN1CCOCC1)c1cc(-c2ccccc2)cc2cnccc12` [Example 69, 7-Phenyl-isoquinoline-5-sulfonic acid (2-{3-[4-chloro-2-(2-morpholino-4-yl-ethoxy)-phenyl]-propylamino}-ethyl)-amide, dihydrochloride salt] was tested. Which IC50 did it give?
A: ≤ 2 µM

Q: How did the IC50 turn out when `O=C(O)c1cc([N+](=O)[O-])ccc1CCCNCCNS(=O)(=O)c1cc(-c2ccccc2)cc2cnccc12` [Example 64, 7-Phenyl-isoquinoline-5-sulfonic acid {2-[3-(2-carboxy-4-nitrophenyl)-propylamino]-ethyl}-amide, dihydrochloride salt] was run?
A: ≤ 2 µM

Q: For `Nc1ccc(CCCNCCNS(=O)(=O)c2cc(-c3ccccc3)cc3cnccc23)cc1` [Example 72, 7-Phenyl-isoquinoline-5-sulfonic acid [2-(3-(4-aminophenyl)-propylamino)-ethyl]-amide, dihydrochloride salt], which IC50 is on record?
A: ≤ 2 µM

Q: How did the IC50 turn out when `COc1ccc(CCCNCCNS(=O)(=O)c2cc(-c3ccc(O)cc3)cc3cnccc23)c(F)c1` [Example 108, 7-(4-Hydroxy-phenyl)-isoquinoline-5-sulfonic acid {2-[3-(2-fluoro-4-methoxy-phenyl)-propylamino]-ethyl}-amide] was run?
A: ≤ 2 µM

Q: `O=S(=O)(NCCNCCCc1ccc(Br)cc1)c1cc(-c2ccccc2)cc2cnccc12` [Example 4, 7-Phenyl-isoquinoline-5-sulfonic acid {2-[3-(4-bromophenyl)-propylamino]-ethyl}-amide, dihydrochloride salt] was tested. Which IC50 did it give?
A: ≤ 2 µM

Q: How did the IC50 turn out when `CCCNS(=O)(=O)c1ccc(CCCNCCNS(=O)(=O)c2cc(-c3ccccc3)cc3cnccc23)cc1` [Example 21, 7-Phenyl-isoquinoline-5-sulfonic acid {2-[3-(4-(N-propylamino-sulfonyl)phenyl)-propylamino]-ethyl}-amide, dihydrochloride salt] was run?
A: ≤ 2 µM

Q: How did the IC50 turn out when `O=S(=O)(NCCNCCCc1ccc(F)cc1F)c1cc(-c2ccccc2)cc2cnccc12` [Example 70, 7-Phenyl-isoquinoline-5-sulfonic acid {2-[3-(2,4-difluorophenyl)-propylamino]-ethyl}-amide, dihydrochloride salt] was run?
A: ≤ 2 µM

Q: With `O=S(=O)(NCCNCCCc1ccc(Cl)cc1Cl)c1cc(-c2ccccc2)cc2cnccc12` [Example 65, 7-Phenyl-isoquinoline-5-sulfonic acid {2-[3-(2,4-dichlorophenyl)-propylamino]-ethyl}-amide, dihydrochloride salt] as the molecule, how does the IC50 read?
A: ≤ 2 µM

Q: Which IC50 does the source give for `O=[N+]([O-])c1ccc(CC(O)CNCCNS(=O)(=O)c2cc(-c3ccccc3)cc3cnccc23)cc1` (racemic) [Example 83, 7-Phenyl-isoquinoline-5-sulfonic acid [2-(2-hydroxy-3-(4-nitrophenyl)-propylamino)-ethyl]-amide, dihydrochloride salt] here?
A: ≤ 2 µM

Q: `CCc1cc([N+](=O)[O-])ccc1CCCNCCNS(=O)(=O)c1cc(-c2ccccc2)cc2cnccc12` [Example 103, 7-Phenyl-isoquinoline-5-sulfonic acid {2-[3-(2-ethyl-4-nitro-phenyl)-propylamino]-ethyl}-amide, dihydrochloride salt] was tested. Which IC50 did it give?
A: ≤ 2 µM

Q: For `O=[N+]([O-])c1cccc(-c2cc(Cl)ccc2CCCNCCNS(=O)(=O)c2cc(-c3ccccc3)cc3cnccc23)c1` [Example 47, 7-Phenyl-isoquinoline-5-sulfonic acid {2-[3-(5-chloro-3′-nitro-biphenyl-2-yl)-propylamino]-ethyl}-amide, dihydrochloride salt], which IC50 is on record?
A: ≤ 2 µM

Q: `CS(=O)(=O)Nc1cccc(-c2cc(S(=O)(=O)NCCNCCCc3ccc([N+](=O)[O-])cc3)c3ccncc3c2)c1` [Example 94, 7-(3-methanesulfonylamino-phenyl)-isoquinoline-5-sulfonic acid {2-[3-(4-nitro-phenyl)-propylamino]-ethyl}-amide, dihydrochloride salt] was tested. Which IC50 did it give?
A: ≤ 2 µM

Q: `O=S(=O)(NCCNCCCc1ccccc1N1C=CC=NC=C1)c1cc(-c2ccccc2)cc2cnccc12` [Example 7, 7-Phenyl-isoquinoline-5-sulfonic acid {2-[3-(2-[1,4]diazepin-1-yl-phenyl)-propylamino]-ethyl}-amide, tetrahydrochloride salt] was tested. Which IC50 did it give?
A: ≤ 2 µM

Q: For `CN1CCN(c2cc(Cl)ccc2CCCNCCNS(=O)(=O)c2cc(-c3ccccc3)cc3cnccc23)CC1` [Example 49, 7-Phenyl-isoquinoline-5-sulfonic acid {2-[3-(4-chloro-2-(4-methyl-piperazin-1-yl)-phenyl)-propylamino]-ethyl}-amide, tetrahydrochloride salt], which IC50 is on record?
A: ≤ 2 µM

Q: `O=S(=O)(NCCNCCCc1cccc(Cl)c1Cl)c1cc(-c2ccccc2)cc2cnccc12` [Example 66, 7-Phenyl-isoquinoline-5-sulfonic acid {2-[3-(2,3-dichlorophenyl)-propylamino]-ethyl}-amide, dihydrochloride salt] was tested. Which IC50 did it give?
A: ≤ 2 µM

Q: For `COc1ccc(CCCNCCNS(=O)(=O)c2cc(-c3cccc(O)c3)cc3cnccc23)c(F)c1` [Example 110, 7-(3-Hydroxy-phenyl)-isoquinoline-5-sulfonic acid {2-[3-(2-fluoro-4-methoxy-phenyl)-propylamino]-ethyl}-amide], which IC50 is on record?
A: ≤ 2 µM

Q: For `N#Cc1ccc(CCCNCCNS(=O)(=O)c2cc(-c3ccccc3)cc3cnccc23)cc1C(F)(F)F` [Example 67, 7-Phenyl-isoquinoline-5-sulfonic acid {2-[3-(4-cyano-3-trifluoromethylphenyl)-propylamino]-ethyl}-amide, dihydrochloride salt], which IC50 is on record?
A: ≤ 2 µM

Q: How did the IC50 turn out when `N#Cc1ccc(C(O)C(O)CNCCNS(=O)(=O)c2cc(-c3ccccc3)cc3cnccc23)cc1` (centres unmarked) [Example 112, 7-Phenyl-isoquinoline-5-sulfonic acid {2-[3-(4-cyano-phenyl)-2,3-dihydroxy-propylamino]-ethyl}-amide, dihydrochloride salt] was run?
A: ≤ 2 µM

Q: With `CN(C)S(=O)(=O)c1ccc(CCCNCCNS(=O)(=O)c2cc(-c3ccccc3)cc3cnccc23)cc1` [Example 24, 7-Phenyl-isoquinoline-5-sulfonic acid {2-[3-(4-(N,N-dimethyl-aminosulfonyl)phenyl)-propyl-amino]-ethyl}-amide, dihydrochloride salt] as the molecule, how does the IC50 read?
A: ≤ 2 µM

Q: `CC1CN(c2cc(Cl)ccc2CCCNCCNS(=O)(=O)c2cc(-c3ccccc3)cc3cnccc23)CCN1` (centres unmarked) [Example 54, 7-Phenyl-isoquinoline-5-sulfonic acid {2-[3-(4-chloro-2-(3-methyl-piperazin-1-yl)-phenyl)-propylamino]-ethyl}-amide, tetrahydrochloride salt] was tested. Which IC50 did it give?
A: ≤ 2 µM
